pKd: −log10 of the molar value. Where two headings read alike, the source gives them in different places.
Experiments:
GABAAR(α1/β3/γ2) [1] = target: T1, GABAAR(α1/β3/γ2) (Homo sapiens, UniProt P14867+P18507+P28472); assay: Ligand detection / high-throughput screening by fluorescence change ratio; type: binding; details: for assignment of hit compound from the screening: third and fourth screening, LOPAC1280, 10 μM
GABAAR(α1/β3/γ2) [2] = target: T1, GABAAR(α1/β3/γ2); assay: Whole-cell patch-clamp electrophysiology in GABAAR-transfected HEK293T cells; type: cell-based; details: for chloride currents in the absence of GABA at high concentrations: 100 μM for CGP-7930 and CGP-13501, 25 μM for vinpocetine, Retro-2 and YC-1
GABAAR(α1/β3/γ2) [3] = target: T1, GABAAR(α1/β3/γ2); assay: Dissociation constant of PAM at fixed 10 μM GABA; type: binding
GABAAR(α1/β3/γ2) [4] = target: T1, GABAAR(α1/β3/γ2); type: binding
GABAARs = details: cited from earlier work

| Compound | assignment of hit compound from the screening (GABAAR(α1/β3/γ2) [1]) | pKd (GABAAR(α1/β3/γ2) [3]) | fluorescence change (ΔF/F0) upon ligand addition in the absence of GABA (GABAAR(α1/β3/γ2) [1]) | fluorescence change (ΔF/F0) upon ligand addition in the presence of GABA (GABAAR(α1/β3/γ2) [1]) | further results |
| --- | --- | --- | --- | --- | --- |
| COc1ccc2c(c1OC)C(=O)O[C@@H]2[C@H]1c2cc3c(cc2CCN1C)OCO3 [hydrastine] | potential orthosteric ligands | – | – | – | – |
| CCOC(=O)C1=C[C@]2(CC)CCCN3CCc4c(n1c1ccccc41)[C@@H]32 [vinpocetine] | PAM candidates | 5.85 | – | – | chloride currents in the absence of GABA at high concentrations (GABAAR(α1/β3/γ2) [2]; no GABA): increased the chloride currents; effect on GABA-induced chloride currents (GABAAR(α1/β3/γ2) [2]; [compound] = 3 μM, [GABA] = 30 μM, −60 mV): reversibly enhanced; direct activation of GABAARs at low concentrations (GABAAR(α1/β3/γ2) [2]; low concentrations (3 μM), no GABA): did not induce any direct activation of GABAARs |
| COc1ccc(-c2ccc(=N)n(CCCC(=O)O)n2)cc1 [gabazine] | potential orthosteric ligands | – | significant decrease | significant decrease | pKd (GABAAR(α1/β3/γ2) [4]): 6.67; concentration at which the fluorescence decrease reached saturation (GABAAR(α1/β3/γ2) [4]; 100 nM Gzn-OG, CLSM image): approximately 10 μM |
| CC1=C(C)C(=O)C(CCCCC#CCCCC#CCO)=C(C)C1=O [AA-861] | PAM candidates | – | – | – | – |
| Cc1ccc(-c2nc3ccc(C)cn3c2CC(=O)N(C)C)cc1 [zolpidem] | – | – | negligible fluorescence change | pronounced fluorescent decrease | – |
| CC(C)(CO)Cc1cc(C(C)(C)C)c(O)c(C(C)(C)C)c1 [CGP-7930, 2,6-Di-tert-butyl-4-(3-hydroxy-2,2-dimethyl-propyl)-phenol] | PAM candidates | 4.88 | – | – | chloride currents in the absence of GABA at high concentrations (GABAAR(α1/β3/γ2) [2]; no GABA): increased the chloride currents |
| picrotoxin | – | – | no effect on the fluorescence intensity | no effect on the fluorescence intensity | – |
| CC(C)c1cccc(C(C)C)c1O [propofol] | – | 5.25 | negligible fluorescence change | pronounced fluorescent decrease | pKd (GABAARs; read-out: Kd of propofol previously reported using live cells): 5.72 |
| CCOC(=O)c1cncn1[C@H](C)c1ccccc1 [etomidate] | – | – | negligible fluorescence change | pronounced fluorescent decrease | pKd (GABAARs; read-out: Kd of etomidate previously reported using live cells): 5.74 |

— PMC6764212 (ACS Central Science, 2019)
